Experimental data published in patent US12599133B2, “Use of trifluenfuronate for prevention and treatment of agricultural pest insects and mites” (SHANDONG UNITED PESTICIDE INDUSTRY CO., LTD., priority 2020, dated 2026).
≈ marks a conversion by molar mass, not a printed value. Read-outs that look alike come from different tables or passages of the source.

Key:
[1] = test system: Maize armyworm egg; assay: Egg hatchability inhibition, leaf-immersing method; assay type: in vivo, Mythimna separate (Walker); conditions: read-out: Hatchability inhibition
Protocol: (§1) Maize armyworm egg: The trial was carried out using a leaf-immersing method. A mother solution of the technical material with a mass concentration of 1 wt % was prepared with acetone, and diluted with deionized water comprising 0.1 wt % Tween 80 to trial concentrations for later use. 1.2% agar was poured into a Petri dish with a diameter of 9 cm and cooled for later use. Two-leaf one-core corn seedlings were placed in the Petri dish when adult maize armyworms were at the great oviposition phase. After 1 day, the […] seedlings were taken out. Corn seedlings with 20-30 eggs in it were selected and immersed in the agent liquid for 10 s and then taken out, and the corn seedlings were placed in a Petri dish and moisturized. Each treatment was repeated 3 times. A 0.1 wt % aqueous solution of Tween 80 was used to set up a blank control, and the blank control was placed in an insect-raising chamber at 25° C. After larvae of the blank control group hatched, the trial results were checked, and the hatchability was calculated.

[2] = test system: Diamondback moth egg; assay: Egg hatchability inhibition, leaf-immersing method; assay type: in vivo, Plutella xylostella (Linnaeus); conditions: Plutella xylostella, read-out: Hatchability inhibition
Protocol: as §1, with “Diamondback moth” for “Maize armyworm”, “radish” for “corn”, “diamondback moths” for “maize armyworms”, “Radish” for “Corn”

[3] = test system: Bemisia tabaci egg; assay: Egg hatching inhibition, potting spray method; assay type: in vivo; conditions: read-out: Hatchability inhibition
Protocol: Bemisia tabaci egg: A potting spray method was adopted. A mother solution of the technical material with a mass concentration of 1 wt % was prepared with acetone for later use, and a series of trial concentrations were prepared using a 0.1 wt % aqueous solution of Tween 80. Potted pepper plants growing at the same pace were selected. Every 6 potted pepper plants were counted as a treatment unit and placed in an insect-raising cage. About 500 silverleaf whiteflies were inoculated into each insect-raising cage and normally kept for 2 days, and then the adults were removed. After the agent was prepared, it was used to spray the pepper plants. After the spraying, the plants were placed in the insect-raising cages. A 0.1 wt % aqueous solution of Tween 80 was used to set up a blank control, and the blank control was placed in an insect-raising chamber at 25° C. After […] nymphs of the blank control group hatched, the number of nymphs in each treatment unit was counted, and the hatching inhibition rate was calculated.

[4] = test system: Bradysia odoriphaga egg; assay: Egg toxicity, agent liquid quantitative dropwise addition method; assay type: in vivo; conditions: 120 h, read-out: Hatchability inhibition
Protocol: Bradysia odoriphaga egg: The trial was carried out by using an agent liquid quantitative dropwise addition method. A mother solution of the technical material with a mass concentration of 1 wt % was prepared with acetone for later use, and a series of trial concentrations were prepared using a 0.1 wt % aqueous solution of Tween 80. Bradysia odoriphaga eggs aged 2 days were picked up. Each treatment unit comprised 20 eggs. The eggs were placed in a Petri dish with a diameter of 9 cm with filter paper spread in it. 600 μL of agent liquid was dropwise added with a pipette onto the eggs, and 600 μL of agent liquid onto the filter paper. Each treatment was repeated 3 times. A 0.1 wt % aqueous solution of Tween 80 was used to set up a blank control, and the blank control was placed in a biochemical incubator at 24±1° C. after treatment. Five days after application, the trial results were checked.

[5] = test system: Tetranychus urticae egg; assay: Mite egg hatching inhibitory activity (toxicity to mite eggs), leaf-immersing method; assay type: in vivo
Protocol: (§2) Mite egg hatching inhibitory activity determination trial: The trial was carried out using a leaf-immersing method. A mother solution of the technical material with a mass concentration of 1 wt % was prepared with acetone for later use, and diluted with deionized water comprising 0.1 wt % Tween 80 to a series of trial concentrations. A 1.2% aqueous agar was poured into a Petri dish with a diameter of 9 cm and cooled for later use. Twenty adult mites were selected and inoculated onto pepper leaves. After 2 days, the adult mites were removed, and the number of mite eggs is counted. The leaves with eggs were immersed in the prepared agent liquid for 10 s and then taken out. The leaves were placed in a Petri dish and moisturized. Each treatment was repeated 3 times. A 0.1 wt % aqueous solution of Tween 80 was used to set up a blank control. These treatments were placed in a biochemical incubator at 24±1° C. After mite eggs of the blank control group hatched, the trial results were checked, and the hatchability rate was calculated.

[6] = test system: Tetranychus cinnabarinus egg; assay: as above; assay type: in vivo
Protocol: as §2

[7] = test system: Tetranychus viennensis egg; assay: as above; assay type: in vivo
Protocol: as §2

[8] = test system: Panonychus citri egg; assay: as above; assay type: in vivo
Protocol: as §2

[9] = test system: Tetranychus cinnabarinus eggs; assay: Toxicity to Tetranychus cinnabarinus eggs in different areas; assay type: in vivo; conditions: for LC50: Tetranychus cinnabarinus
Protocol: as §2
The procedure was the same as above except that the assay for toxicity to Tetranychus cinnabarinus eggs was carried out in different areas.

[10] = test system: Tetranychus cinnabarinus Adult female mite; assay: Oviposition inhibitory activity determination trial; assay type: in vivo; conditions: 144 h, read-out: 6-day oviposition inhibition rate; for inhibition at 1 µg/mL: trial concentration 1 mg/L; for inhibition at 5 µg/mL: trial concentration 5 mg/L
Protocol: (§3) Oviposition inhibitory activity determination trial: A mother solution of the technical material with a mass concentration of 1 wt % was prepared with acetone for later use, and diluted with deionized water comprising 0.1 wt % Tween 80 to a series of trial concentrations. Fresh leaves of cowpea seedlings were selected and cut into round leaf disks with a diameter of about 5.0 cm. The leaf disks were placed in a plastic Petri dish with filter paper and degreased cotton spread in it. 5 mg/L and 10 mg/L treatment agents were applied to the back of the leaves with cotton swabs. An aqueous solution with the same solvent proportion was used as a control agent. After the agent liquid was naturally evaporated under indoor conditions, about 20 female adult mites aged 3-5 days were inoculated onto each leaf. Each treatment was repeated 5 times, about 100 mites were treated The mites were kept in the same conditions, and observed under a binocular dissecting microscope every 24 h over 6 consecutive days, and the number of laid eggs was recorded for each treatment. After the trial ended, the oviposition inhibition rate was calculated for each treatment.

[11] = test system: Tetranychus urticae Adult female mite; assay: as above; assay type: in vivo; conditions: 144 h, read-out: 6-day oviposition inhibition rate; for inhibition at 1 µg/mL: trial concentration 1 mg/L; for inhibition at 5 µg/mL: trial concentration 5 mg/L
Protocol: as §3

[12] = test system: Tetranychus viennensis Adult female mite; assay: as above; assay type: in vivo; conditions: 144 h, read-out: 6-day oviposition inhibition rate; for inhibition at 1 µg/mL: trial concentration 1 mg/L; for inhibition at 5 µg/mL: trial concentration 5 mg/L
Protocol: as §3

[13] = test system: Panonychus citri Adult female mite; assay: as above; assay type: in vivo; conditions: 144 h, read-out: 6-day oviposition inhibition rate; for inhibition at 1 µg/mL: trial concentration 1 mg/L; for inhibition at 5 µg/mL: trial concentration 5 mg/L
Protocol: as §3

For `O=C(NC(=O)c1c(F)cccc1F)Nc1cc(Cl)c(OC(F)(F)C(F)C(F)(F)F)cc1Cl` (stereo not shown) [Lufenuron], the inhibition at 5 µg/mL ([1]; Maize armyworm egg, trial concentration 5 mg/L) was 22.6%, the inhibition at 20 µg/mL ([1]; Maize armyworm egg, trial concentration 20 mg/L) was 58.4% and the inhibition at 5 µg/mL ([2]; Diamondback moth egg, trial concentration 5 mg/L) was 59.1%. For the same molecule, the inhibition at 20 µg/mL ([2]; Diamondback moth egg, trial concentration 20 mg/L) was 75%.

`CC(COc1ccc(Oc2ccccc2)cc1)Oc1ccccn1` (stereo not shown) [Pyriproxyfen] was tested, and the inhibition at 5 µg/mL ([3]; Bemisia tabaci egg, trial concentration 5 mg/L) was 43.7%, the inhibition at 20 µg/mL ([3]; Bemisia tabaci egg, trial concentration 20 mg/L) was 86.8% and the inhibition at 50 µg/mL ([4]; Bradysia odoriphaga egg, trial concentration 50 mg/L, five days after application) was 42.4%. It also gave an inhibition at 100 µg/mL ([4]; Bradysia odoriphaga egg, trial concentration 100 mg/L, five days after application) of 61.6%.

`COc1ccccc1C1OC(=O)CC1C(=O)OCCC(F)=C(F)F` (stereo not shown) [Trifluenfuronate, trifluenfuronate] gave an inhibition at 5 µg/mL ([3]; Bemisia tabaci) of 83.3%, an inhibition at 20 µg/mL ([3]; Bemisia tabaci) of 98.7% and an inhibition at 5 µg/mL [1] of 83.7%. It also gave an inhibition at 20 µg/mL [1] of 92.3%, an inhibition at 5 µg/mL [2] of 73.6% and an inhibition at 20 µg/mL [2] of 88.3%. The LC50 [5] was 3.69 µg/mL (≈ 10.7 µM), the LC90 [5] was 18.01 µg/mL (≈ 52.3 µM) and the LC50 [6] was 4.12 µg/mL (≈ 12 µM). The LC90 [6] was 20.77 µg/mL (≈ 60.3 µM), the LC50 [7] was 3.66 µg/mL (≈ 10.6 µM) and the LC90 [7] was 12.44 µg/mL (≈ 36.1 µM). For the same molecule, the LC50 [8] was 3.28 µg/mL (≈ 9.53 µM), the LC90 [8] was 17.97 µg/mL (≈ 52.2 µM) and the LC50 ([9]; area Fangcun, Taian) was 3.89 µg/mL (≈ 11.3 µM). For the same molecule, the LC50 ([9]; area Jiyang, Jinan) was 3.92 µg/mL (≈ 11.4 µM), the LC50 ([9]; area Qihe, Dezhou) was 3.79 µg/mL (≈ 11 µM) and the LC50 ([9]; area Shouguang, Weifang) was 4.11 µg/mL (≈ 11.9 µM). It also gave an LC90 ([9]; area Fangcun, Taian) of 21.95 µg/mL (≈ 63.8 µM), an LC90 ([9]; area Jiyang, Jinan) of 20.94 µg/mL (≈ 60.8 µM) and an LC90 ([9]; area Qihe, Dezhou) of 15.62 µg/mL (≈ 45.4 µM). For the same molecule, the LC90 ([9]; area Shouguang, Weifang) was 19.37 µg/mL (≈ 56.3 µM), the inhibition at 1 µg/mL [10] was 47.3% and the inhibition at 5 µg/mL [10] was 77.7%. It also gave an inhibition at 1 µg/mL [11] of 50.4%, an inhibition at 5 µg/mL [11] of 77% and an inhibition at 1 µg/mL [12] of 48.7%. It also gave an inhibition at 5 µg/mL [12] of 75.3%, an inhibition at 1 µg/mL [13] of 51% and an inhibition at 5 µg/mL [13] of 77.8%. The inhibition at 5 µg/mL ([4]; Bradysia odoriphaga) was 81.3% and the inhibition at 20 µg/mL ([4]; Bradysia odoriphaga) was 95.3%.

`CCOc1cc(C(C)(C)C)ccc1C1COC(c2c(F)cccc2F)=N1` (stereo not shown) [Etoxazole] showed an LC50 [5] of 17.8 µg/mL (≈ 49.5 µM), an LC90 [5] of 135.01 µg/mL (≈ 376 µM) and an LC50 [6] of 18.5 µg/mL (≈ 51.6 µM). It also gave an LC90 [6] of 124.23 µg/mL (≈ 346 µM), an LC50 [7] of 17.6 µg/mL (≈ 49 µM) and an LC90 [7] of 88.51 µg/mL (≈ 246 µM). For the same molecule, the LC50 [8] was 21.6 µg/mL (≈ 60 µM), the LC90 [8] was 123.59 µg/mL (≈ 344 µM) and the LC50 ([9]; area Fangcun, Taian) was 15.4 µg/mL (≈ 42.8 µM). The LC50 ([9]; area Jiyang, Jinan) was 5.37 µg/mL (≈ 14.9 µM), the LC50 ([9]; area Qihe, Dezhou) was 26 µg/mL (≈ 72.3 µM) and the LC50 ([9]; area Shouguang, Weifang) was 7.21 µg/mL (≈ 20.1 µM). For the same molecule, the LC90 ([9]; area Fangcun, Taian) was 168.95 µg/mL (≈ 470 µM), the LC90 ([9]; area Jiyang, Jinan) was 62.95 µg/mL (≈ 175 µM) and the LC90 ([9]; area Qihe, Dezhou) was 162.82 µg/mL (≈ 453 µM). It also gave an LC90 ([9]; area Shouguang, Weifang) of 69.57 µg/mL (≈ 194 µM), an inhibition at 1 µg/mL [10] of 35.7% and an inhibition at 5 µg/mL [10] of 66.8%. For the same molecule, the inhibition at 1 µg/mL [11] was 35.9%, the inhibition at 5 µg/mL [11] was 69.2% and the inhibition at 1 µg/mL [12] was 27%. It also gave an inhibition at 5 µg/mL [12] of 60.8%, an inhibition at 1 µg/mL [13] of 37.6% and an inhibition at 5 µg/mL [13] of 65.4%.
